≈ marks a conversion by molar mass, not a printed value.
What was measured:
α5-GABAA receptor = biological target: T1, α5-GABAA receptor (Homo sapiens, UniProt P18507+P31644); test: Whole cell patch clamp, inverse agonism efficacy on GABA-induced current in HEK-293 cells expressing α5-GABAA receptor; type: cell-based; conditions: HEK293; compound 100 nM, GABA 0.05 μM; ratio to reference compound Example 7 in CN106854207A in the same batch
T1 construct: expressed in transfected cells; host or cells: HEK-293 (monoclonal, stably transfected)
Method: The inventors used electrophysiological methods to determine the inverse agonist efficacy of the substances to be tested. The detailed procedures are as follows:
(1) Different subunits of GABAA receptors were expressed in human embryonic kidney cells 293 (HEK293). The cells were cultured in a culture medium and used as a cell model for screening potential analgesics. The α, β and γ subunits are necessary to form complete functional GABAA receptors. In this example, the inventors have established the following cell model: (a) α5 subunit (protein sequence is GenBank accession number: NM_000810.3), (33 subunit (protein sequence is GenBank accession number: NM_000814.5) and γ2 subunit (protein sequence is GenBank accession number: NM_000816.3) were expressed in HEK-293 cell line at the same time, followed by screening the monoclonal cell line. This cell line contained α5-GABAA receptor and had complete GABAA receptor function.
(2) The monoclonal stably transfected HEK-293 cells expressing α5-GABAA receptor were cultured in 10 cm culture dishes. The cells were passaged after reaching 80-90% confluence. During passaging, the culture medium was removed and discarded, 3 mL of DPBS (phosphate buffered saline, Gibco™) was added to the dishes, the dishes were shaken slightly, and DPBS was removed and discarded. 1 mL of trypsin (TrypLE Express, Gibco™) was added and the cells were digested at 37° C. for 1-2 minutes. Then 3 mL of complete medium (DMEM+10% FBS (Gibco™)) was added and the cells at the bottom of the culture dishes were dispersed. The cell suspension were transferred to a 15 mL centrifugal tube (Corning™) and then centrifuged at 200 g for 3 minutes. The supernatant was discarded, 4 mL of complete medium was added, and the cells were resuspended by gently blowing. The cell suspension was diluted by 1:5 or 1:10 for subculturing. The cell suspension was diluted by 1:12 for electrophysiology experiment, and added to a 24 well plate (Corning™) with a glass slide pre-treated with poly-D-lysine placed thereon; the experiment was initiated after the cells were adhered to the slide. The cells for electrophysiology experiment were maintained in culture for no more than 48 hours before use.
(3) Compound concentration: for screening, all compounds were diluted to a final concentration of 100 nM and the concentration of GABA was 0.05 μM. The compounds were at the concentration of 0.3 nM, 3 nM, 10 nM, 30 nM, 100 nM and 300 nM in dose-inverse agonism efficacy (%) experiment. The whole cell patch clamp technique was used in electrophysiology experiments, which can refer to the literature (I. Lecker, Y. Yin, D. S. Wang and B. A. Orser, (2013) Potentiation of GABAA receptor activity by volatile anaesthetics is reduced by α5-GABAA receptor-preferring inverse agonists, British Journal of Anaesthesia 110 (S1): i73-i81). The extracellular solution (ECS) contained: 150 mM NaCl, 5 mM KCl, 2.5 mM CaCl2, 1 mM MgCl2, 10 mM HEPES and 10 mM glucose (pH 7.4); Patch electrodes were filled with an intracellular solution containing: 140 mM CsCl, 11 mM EGTA, 10 mM HEPES, 2 mM CaCl2, 1 mM MgCl2, 4 mM MgATP, 2 mM TEA (pH 7.3). The currents were recorded by an EPC-10 amplifier and the PatchMaster software (HEKA). Patch electrodes with a resistance of 4-6 MΩ were pulled from borosilicate glass. The ALA-VC3-8PP™ system was used for extracellular administration. Separate cells that grew independently was selected for recording. During recording, the membrane voltage was clamped at −60 mV. During experiment, the cells were firstly perfused with ECS for 20 seconds. When the baseline reached to a stable state, the cells were then perfused with GABA solution. Then the current induced by GABA could be detected. After about 20 to 40 seconds, the current was stable. ECS was switched to compounds solution and the effects of the compounds were detected. At last, the perfusion solution was switched to ECS. […]

[1] = Kinetic solubility in 50 mM phosphate buffer pH 7.4; type: physicochemical; conditions: aqueous buffer, kinetic from dmso stock, 50 mM phosphate buffer pH 7.4, 2% DMSO, room temperature
Method: (§1) 50 mM phosphate buffer pH=7.4: 0.39 g of NaH2PO4.2H2O, and 1.4025 g of Na2HPO4 were weighted and placed in an erlenmeyer flask, 240 mL of water was added. The solid was dissolved and mixed thoroughly, the pH value was adjusted to 7.4 with 10M NaOH solution, and the resulting solution was transferred to a 250 mL volumetric flask, followed by adding water to the mark.
(§2) Waters e2695 HPLC high performance liquid chromatography, Mettler XSE105 analytical balance.
(§3) Firstly, a 10 mM stock solution with DMSO as the solvent was prepared, and was diluted with a diluent (ACN: PB buffer 50:50) into 1 μM-200 μM as standard solution.
Kinetic solubility. 30 μL of the stock solution was placed in a 2 mL centrifuge tube, 1470 μL of 50 mM phosphate buffer (pH 7.4) (containing DMSO at a final concentration of 2%) was added. The mixture was shaken at room temperature (1000 rpm/min) for 24 hours, and then filtered. The filtrate was tested by high performance liquid chromatography (UV).

[2] = Thermodynamic solubility in 50 mM phosphate buffer pH 7.4; type: physicochemical; conditions: aqueous buffer, thermodynamic from solid, 50 mM phosphate buffer pH 7.4, room temperature
Method: as §1, §2, §3
Thermodynamic solubility. About 1 mg of the sample was weighted, 1.5 mL of 50 mM phosphate buffer (pH 7.4) was added thereto, and the mixture was shaken at room temperature for 24 hours to ensure that the solution reached a state of saturation. The solution was then filtered, and the filtrate was tested with high-performance liquid chromatography (UV).

T1 sequence (P31644 32-462): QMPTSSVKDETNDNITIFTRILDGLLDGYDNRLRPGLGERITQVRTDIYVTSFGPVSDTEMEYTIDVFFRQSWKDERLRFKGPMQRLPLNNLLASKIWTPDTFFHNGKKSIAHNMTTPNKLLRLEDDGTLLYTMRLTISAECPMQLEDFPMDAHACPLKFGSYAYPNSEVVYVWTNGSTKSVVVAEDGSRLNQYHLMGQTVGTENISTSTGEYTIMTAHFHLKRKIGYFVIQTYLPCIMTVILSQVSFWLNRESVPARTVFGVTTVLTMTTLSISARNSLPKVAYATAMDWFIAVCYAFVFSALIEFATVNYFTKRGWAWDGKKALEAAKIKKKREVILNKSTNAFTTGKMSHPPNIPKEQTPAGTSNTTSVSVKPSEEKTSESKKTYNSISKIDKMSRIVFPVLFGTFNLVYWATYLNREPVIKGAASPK
T1 sequence (P28472 26-473 partner): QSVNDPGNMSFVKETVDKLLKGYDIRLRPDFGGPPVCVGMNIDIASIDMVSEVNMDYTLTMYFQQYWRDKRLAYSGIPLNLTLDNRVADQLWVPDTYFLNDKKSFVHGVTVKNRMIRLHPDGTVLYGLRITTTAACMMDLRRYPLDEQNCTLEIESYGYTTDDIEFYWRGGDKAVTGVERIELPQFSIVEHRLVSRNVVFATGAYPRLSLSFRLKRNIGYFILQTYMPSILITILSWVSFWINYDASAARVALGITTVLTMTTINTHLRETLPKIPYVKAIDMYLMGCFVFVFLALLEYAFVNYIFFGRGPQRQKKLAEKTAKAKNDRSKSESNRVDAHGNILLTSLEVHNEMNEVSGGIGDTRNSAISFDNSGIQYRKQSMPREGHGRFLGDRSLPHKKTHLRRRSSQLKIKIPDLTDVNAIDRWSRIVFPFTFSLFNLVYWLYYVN
T1 sequence (P18507 40-467 isoform P18507-1 limits assumed): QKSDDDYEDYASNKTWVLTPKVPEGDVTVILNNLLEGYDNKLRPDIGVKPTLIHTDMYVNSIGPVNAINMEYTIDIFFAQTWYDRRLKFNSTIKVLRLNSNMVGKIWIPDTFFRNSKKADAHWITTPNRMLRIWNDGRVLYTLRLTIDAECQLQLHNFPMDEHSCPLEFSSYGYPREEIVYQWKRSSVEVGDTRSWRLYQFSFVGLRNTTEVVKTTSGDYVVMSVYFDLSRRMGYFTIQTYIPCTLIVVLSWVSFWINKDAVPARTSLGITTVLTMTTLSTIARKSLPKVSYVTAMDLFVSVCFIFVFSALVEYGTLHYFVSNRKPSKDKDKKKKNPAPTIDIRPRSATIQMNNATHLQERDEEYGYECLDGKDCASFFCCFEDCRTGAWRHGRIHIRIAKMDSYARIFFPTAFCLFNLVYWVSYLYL

SMILES	Emax at 0.1 µM (α5-GABAA receptor)	solubility kinetic at 24 h [1]	solubility thermodynamic at 24 h [2]
COCc1cc(-c2nnc3c4ccccc4c(OCc4ccc(C(=O)N[C@@H](C)COC)cn4)nn23)no1 [Compound 05, (S)—N-(2-methoxy-1-methyl-ethyl)-6-[3-(5-methoxymethyl-isoxazol-3-yl)-[1,2,4]triazolo[3,4-a]phthalazin-6-yloxymethyl]-nicotinamide]	90%	25.6 µg/mL (≈ 50.7 µM)	–
COCc1cc(-c2nnc3c4ccccc4c(OCc4ccc(C(=O)NC(C)COC)cn4)nn23)no1 (centres unmarked) [Compound 10, N-(2-methoxy-1-methyl-ethyl)-6-[3-(5-methoxymethyl-isoxazol-3-yl)-[1,2,4]triazolo[3,4-a]phthalazin-6-yloxymethyl]-nicotinamide]	103%	18.9 µg/mL (≈ 37.6 µM)	–
COCc1cc(-c2nnc3c4ccccc4c(OCc4ccc(C(=O)NC(COC)COC)cn4)nn23)no1 [Compound 30]	85.2%	6.85 µg/mL (≈ 12.8 µM)	–
COCc1cc(-c2nnc3c4ccccc4c(OCc4ccc(C(=O)N5CCC(F)(F)CC5)cn4)nn23)no1 [Compound 34]	–	4.6 µg/mL (≈ 8.59 µM)	4.4 µg/mL (≈ 8.22 µM)
COCc1cc(-c2nnc3c4ccccc4c(OCc4ccc(C(=O)N5CC6(COC6)C5)cn4)nn23)no1 [Compound 39]	90.2%	48.5 µg/mL (≈ 94.3 µM)	–
COCc1cc(-c2nnc3c4ccccc4c(OCc4ccc(C(=O)N5C[C@@H]6C[C@H]5CO6)cn4)nn23)no1 [Compound 43]	86.9%	100 µg/mL (≈ 195 µM)	–
COCc1cc(-c2nnc3c4ccccc4c(OCc4ccc(C(=O)N5CCOC(C)C5)cn4)nn23)no1 (centres unmarked) [Compound 54]	77.5%	97.9 µg/mL (≈ 190 µM)	–
COCc1cc(-c2nnc3c4ccccc4c(OCc4ccc(C(=O)N5CCC6(CC5)COC6)cn4)nn23)no1 [Compound 56, {6-[3-(5-methoxymethyl-isoxazol-3-yl)-[1,2,4]triazolo[3,4-a]phthalazin-6-yloxymethyl]-pyridin-3-yl}-(2-oxa-7-aza-spiro[3.5]non-7-yl)-methanone]	111%	12.5 µg/mL (≈ 23.1 µM)	–
CCNC(=O)c1ccc(COc2nn3c(-c4cc(C)on4)nnc3c3ccccc23)nc1 [drawing 164, reference compound]	–	0.62 µg/mL (≈ 1.44 µM)	< 0.5 µg/mL
Cc1cc(-c2nnc3c4ccccc4c(OCc4ccc(C(=O)N5CCOCC5)cn4)nn23)no1 [drawing 171, reference compound]	–	1.95 µg/mL (≈ 4.14 µM)	1.7 µg/mL (≈ 3.61 µM)
COCCNC(=O)c1ccc(COc2nn3c(-c4cc(C)on4)nnc3c3ccccc23)nc1 [reference compound]	–	0.92 µg/mL (≈ 2 µM)	1.5 µg/mL (≈ 3.26 µM)

The next lines start with the values.

Emax at 0.1 µM (α5-GABAA receptor)	solubility kinetic at 24 h [1]	solubility thermodynamic at 24 h [2]	SMILES
74.9%	13.6 µg/mL (≈ 26.4 µM)	–	COCc1cc(-c2nnc3c4ccccc4c(OCc4ccc(C(=O)NC[C@@H]5CCCO5)cn4)nn23)no1 [Compound 06, (S)-6-[3-(5-methoxymethyl-isoxazol-3-yl)-[1,2,4]triazolo[3,4-a]phthalazin-6-yloxymethyl]-N-(tetrahydro-furan-2-ylmethyl)-nicotinamide]
108%	23.2 µg/mL (≈ 47.4 µM)	–	COCCNC(=O)c1ccc(COc2nn3c(-c4cc(COC)on4)nnc3c3ccccc23)nc1 [Compound 07, N-(2-methoxy-ethyl)-6-[3-(5-methoxymethyl-isoxazol-3-yl)-[1,2,4]triazolo[3,4-a]phthalazin-6-yloxymethyl]-nicotinamide]
–	0.77 µg/mL (≈ 1.5 µM)	0.84 µg/mL (≈ 1.64 µM)	COCc1cc(-c2nnc3c4ccccc4c(OCc4ccc(C(=O)NCC(F)(F)F)cn4)nn23)no1 [Compound 15, N-(2,2,2-trifluoroethyl)-6-((3-(5-methoxymethylisoxazol-3-yl)-[1,2,4]triazolo[3,4-a]phthalazin-6-oxy)methylene)nicotinamide]
115%	10.8 µg/mL (≈ 21.4 µM)	–	COCc1cc(-c2nnc3c4ccccc4c(OCc4ccc(C(=O)NCC5COC5)cn4)nn23)no1 [Compound 18]
118%	10.1 µg/mL (≈ 19.7 µM)	–	COCc1cc(-c2nnc3c4ccccc4c(OCc4ccc(C(=O)NCC5(C)COC5)cn4)nn23)no1 [Compound 20, N-((3-methyl(oxetanyl)-methyl)-6-{3-[5(methoxymethyl)isoxazol-3-yl]-[1,2,4]triazole[3,4-a]phthalazin-6-oxy)methylene}nicotinamide]
73.7%	9.11 µg/mL (≈ 18.8 µM)	–	COCc1cc(-c2nnc3c4ccccc4c(OCc4ccc(C(=O)NC5CCC5)cn4)nn23)no1 [Compound 23]
–	1.39 µg/mL (≈ 2.81 µM)	0.74 µg/mL (≈ 1.49 µM)	COCc1cc(-c2nnc3c4ccccc4c(OCc4ccc(C(=O)NCC(F)F)cn4)nn23)no1 [Compound 24]
133%	3.68 µg/mL (≈ 7.6 µM)	–	COCc1cc(-c2nnc3c4ccccc4c(OCc4ccc(C(=O)NCCC#N)cn4)nn23)no1 [Compound 28, N-(2-cyano-ethyl)-6-[3-(5-methoxymethyl-isoxazol-3-yl)-[1,2,4]triazolo[3,4-a]phthalazin-6-yloxymethyl]-nicotinamide]
95.1%	4.19 µg/mL (≈ 8.42 µM)	–	COCc1cc(-c2nnc3c4ccccc4c(OCc4ccc(C(=O)NC56CC(C5)C6)cn4)nn23)no1 [Compound 31]
89.1%	29.7 µg/mL (≈ 56.3 µM)	–	COCc1cc(-c2nnc3c4ccccc4c(OCc4ccc(C(=O)NC5CN(C(C)=O)C5)cn4)nn23)no1 [Compound 32]
78.3%	31.9 µg/mL (≈ 63.9 µM)	–	COCc1cc(-c2nnc3c4ccccc4c(OCc4ccc(C(=O)N(C)CC5CC5)cn4)nn23)no1 [Compound 40]
88.4%	6.93 µg/mL (≈ 13.4 µM)	–	COCc1cc(-c2nnc3c4ccccc4c(OCc4ccc(C(=O)N5CCC(O)CC5)cn4)nn23)no1 [Compound 45]
72.5%	97.8 µg/mL (≈ 190 µM)	–	COCc1cc(-c2nnc3c4ccccc4c(OCc4ccc(C(=O)N5CCOCC5C)cn4)nn23)no1 (centres unmarked) [Compound 47, (6-(((3-(5-(methoxymethyl)isoxazol-3-yl)-[1,2,4]triazolo[3,4-a]phthalazin-6-yl)oxy)methyl)pyridin-3-yl)(3-methylmorpholino)methanone]
78.7%	31.7 µg/mL (≈ 65.3 µM)	–	COCc1cc(-c2nnc3c4ccccc4c(OCc4ccc(C(=O)N5CCCC5)cn4)nn23)no1 [Compound 48]
